# Target: Glycogen synthase kinase-3 beta (Homo sapiens) (UniProt P49841)
# Assay: Inhibition of human GSK3-beta assessed as remaining enzyme activity at 10 uM
# Glycogen synthase kinase-3 beta (Homo sapiens), sequence (P49841 whole entry, looked up): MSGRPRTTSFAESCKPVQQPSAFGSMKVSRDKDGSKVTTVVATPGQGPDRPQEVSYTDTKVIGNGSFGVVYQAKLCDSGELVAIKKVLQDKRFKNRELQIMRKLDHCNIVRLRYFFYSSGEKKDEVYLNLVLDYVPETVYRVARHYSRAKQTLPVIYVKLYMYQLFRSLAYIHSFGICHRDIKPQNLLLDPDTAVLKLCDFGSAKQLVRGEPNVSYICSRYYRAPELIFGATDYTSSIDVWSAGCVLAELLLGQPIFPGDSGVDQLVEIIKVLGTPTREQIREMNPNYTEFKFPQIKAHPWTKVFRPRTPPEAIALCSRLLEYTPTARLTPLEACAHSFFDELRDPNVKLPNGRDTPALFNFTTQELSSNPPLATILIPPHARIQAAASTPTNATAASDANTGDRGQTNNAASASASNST
row,Structure (SMILES),Activity
1,CCCNc1nc2ccccn2c(=O)c1/C=C1\SC(=S)NC1=O,95%
2,COc1ccc2c(c1)/C(=C1/SC(=S)NC1=O)C(=O)N2,84%
3,Cc1cc(/C=C2\SC(=S)NC2=O)c(C)n1-c1cccc([N+](=O)[O-])c1,41%
4,COc1ccc(-c2ccc(/C=C3\SC(=S)NC3=O)o2)c([N+](=O)[O-])c1,5%
5,O=C1NC(=O)/C(=C/c2ccc(-c3cc([N+](=O)[O-])ccc3Cl)o2)S1,8%
6,Cc1ccc(/N=C2/NC(=O)S/C2=C\c2ccccc2Cl)cc1,18%
7,COc1cc(/C=C2\SC(=S)NC2=O)cc(Br)c1OCc1ccccc1C,6%
8,Cc1ccc(S(=O)(=O)n2cc(/C=C3\SC(=S)NC3=O)c3ccccc32)cc1,67%
9,O=C1NC(=S)S/C1=C\c1ccccc1OS(=O)(=O)c1ccccc1[N+](=O)[O-],14%
10,O=C1CC(C(F)(F)F)=NC(Sc2c(-c3ccccc3)c3cc([N+](=O)[O-])ccc3[nH]c2=O)=N1,41%
11,CCOc1cc(C=C2C(=O)NC(=S)NC2=O)cc(I)c1OC,58%
12,O=C1NC(=S)S/C1=C\c1ccc(O)c([N+](=O)[O-])c1,7%
13,CC1=NCCNC2=C1[C@H](c1ccc(F)cc1)N(c1ccccn1)C2=O,99%

# From ChEMBL document CHEMBL1141635, “Novel GSK-3beta inhibitors from sequential virtual screening” (Bioorg Med Chem, 2008)
